Test results: patent US20170217914A1, “Novel Triarylethylene Compounds and Methods Using Same” (The Penn State Research Foundation, priority 2014, published 2017)
Read-outs that look alike come from different tables or passages of the source.

Tests used:
[1] = system: MCF-7 cells; assay: Live/Dead assay by flow cytometry, MCF-7 cells; assay type: cell-based, human; conditions: 24 h
Text: (§1) To measure cell death, the Live/Dead assay (Life technologies, USA) was used, which determines intracellular esterase activity and plasma membrane integrity (Pandey et al., 2013, PloS One 8:e78570). Nonfluorescent polyanionic dye calcein AM is retained by live cells and by enzymatic conversion (esterase) it becomes fluorescent, produces intense green fluorescence in live cells. Ethidium homodimer enters cells with damaged membranes and binds to nucleic acids, thereby producing a bright red fluorescence in dead cells. […] Cells were stained with the Live and Dead reagent (5 μM ethidium homodimer and 5 μM calcein-AM) and analyzed by flow cytometry according to the manufacture's protocols.

[2] = system: MDA-MB-231 cells; assay: Live/Dead assay by flow cytometry, MDA-MB-231 cells; assay type: cell-based, human; conditions: 24 h, 10 μM
Text: as §1

[3] = system: MCF-7 (ER-positive) human breast cancer cell line; assay: MTT cell viability assay, MCF-7 cells; conditions: for anticancer activity in initial screening: 0.5-25 μM, 48 h (FIG. 3); for times more cytotoxic than Tamoxifen / times more effective than Ospemifene: 96 h time point; for IC50: Homo sapiens, read-out: MCF-7 (ER positive) IC50
Method: (§3) An MTT solution was added to each well and incubated for 3 h at 37° C. After 3 h, DMSO was added and the optical density was measured at 570 nm using a 96-well multiscanner (Dynex Technologies, MRX Revelation; Chantilly, Va., USA). Backgrounds were subtracted at 630 nm. IC50 values were calculated by non-linear regression analysis using Prism software.
(§4) The effects of novel triarylethylene derivatives on the cell viability were determined by the MTT uptake method using previously described methods (Kaur et al., 2014, Eur. J. Med. Chem. 86:211-218). Briefly, 3000 cells were incubated with various concentrations of compounds in triplicate in a 96-well plate for 72 h at 37° C. An MTT solution was added to each well and incubated for 3 h at 37° C. After 3 h, DMSO was added and the optical density was measured at 570 nm using a 96-well multiscanner (Dynex Technologies, MRX Revelation; Chantilly, Va., USA). Backgrounds were subtracted at 630 nm. IC50 values were calculated by non-linear regression analysis using Prism software.

[4] = system: MDA-MB-231 (ER-negative) human breast cancer cell line; assay: MTT cell viability assay, MDA-MB-231 cells; conditions: for anticancer activity in initial screening: 0.5-25 μM, 48 h (FIG. 3); for times more cytotoxic than Tamoxifen / times more effective than Ospemifene: 96 h time point; for IC50: Homo sapiens, read-out: MDA-MB-231 (ER− negative) IC50
Method: as §3, §4

[5] = system: normal mouse embryonic fibroblast (MEF) cells; assay: MTT cell viability assay, normal MEF cells; conditions: 48 h
Method: as §3

[6] = system: MMP-9; assay: Western blot, MMP-9 expression in breast cancer cells; assay type: cell-based, human; conditions: MDA-MB-231 and MCF-7 cells, 24 h
Method: (§2) To determine the effect of novel triarylethylene derivatives on proteins involved in metastasis, and adhesion, whole-cell extracts were prepared by subjecting cells to lysis in RIPA buffer supplemented with protease and phosphatase inhibitor cocktails using previously described methods (Pandey et al., 2014, Exp. Hematol. 42:883-896). Lysates were spun at 15,000 rpm for 10 minutes to remove insoluble material. Supernatant were collected and kept at −80° C. Lysates were resolved by SDS-PAGE. After electrophoresis, the proteins were electro-transferred to PVDF membranes, blotted with the relevant antibodies, and detected by enhanced chemo-luminescence reagent.

[7] = system: c-Myc; assay: Western blot, c-Myc expression in breast cancer cells; assay type: cell-based, human; conditions: MDA-MB-231 and MCF-7 cells, 24 h
Method: as §2

[8] = system: caveolin; assay: Western blot, caveolin expression in breast cancer cells; assay type: cell-based, human; conditions: MDA-MB-231 and MCF-7 cells, 24 h
Method: as §2

[9] = system: MDA-MB-231 cells; assay: In vitro Matrigel invasion assay; assay type: cell-based, human; conditions: dose dependent
Method: Human breast cancer MDA-MB-231 cells were serum starved for 24 h in serum-free medium (DMEM without FBS). After starving 50,000 cells were transferred onto Matrigel pre-coated invasion inserts (upper chamber, BD Biocoat). Lower chambers of plate were filled with complete medium (DMEM and 10% FBS) and cells were allowed to migrate under chemotaxis. […] After incubation cells that had invaded to the opposite side of the Transwell membrane were washed with PBS and fixed in chilled 70% ethanol for 15 min and air dried. Cells were stained with 0.5% crystal violet for 10 min. Cells were washed, dried, and images were captured at 40× magnification.

[10] = MTT, 72 h, versus Ospemifene and Tamoxifen

Row | Compound | cells killed ([1]; 10 μM) | cells killed [2] | anticancer activity in initial screening [3] | times more cytotoxic than Tamoxifen [3] | times more effective than Ospemifene [3] | IC50 ([3]; MCF7, 48 h) | IC50 ([3]; MCF7, 96 h) | anticancer activity in initial screening [4] | times more cytotoxic than Tamoxifen [4] | times more effective than Ospemifene [4] | IC50 ([4]; MDA-MB-231, 48 h) | IC50 ([4]; MDA-MB-231, 96 h) | toxicity to normal MEF cells [5] | expression of MMP-9 [6] | expression of c-Myc [7] | expression of caveolin [8] | effect on invasion of ER-negative cells [9] | cytotoxic activity [3, 10] | cytotoxic activity [4, 10] | dead cells ([1]; increasing amount of compound)
1 | NCCOc1ccc(/C(=C(/CCN)c2ccccc2)c2ccccc2)cc1 [Compound 7, (Z)-4-{4-(2-aminoethoxy)phenyl}-3,4-diphenylbut-3-en-1-amine] | 70% | 70% | more potent than Ospemifene | at least five | about five | 23.6 µM | 11.2 µM | more potent than Ospemifene | at least five | eight | 17.1 µM | 13.4 µM | non-toxic |  |  |  |  |  |  | 
2 | (Z)-[4-azido-1-{4-(2-azidoethoxy) phenyl}but-1-ene-1,2-diyl]dibenzene [Compound 5] |  |  |  |  |  |  |  |  |  |  |  |  |  | inhibited the expression | inhibited the expression | inhibited the expression | suppressed the invasion | much more effective than the standards | much more effective than the standards | 
3 | NCC/C(=C(\c1ccccc1)c1ccc(OCCO)cc1)c1ccccc1 [Compound 6, (Z)-2-{4-(4-amino-1,2-diphenylbut-1-enyl)phenoxy}ethanol] |  |  | more potent than Ospemifene | at least five | about five | 15.9 µM | 12.4 µM | more potent than Ospemifene | at least five | eight | 25 µM | 14.5 µM | non-toxic |  |  |  |  |  |  | 50-70%
